Test results reported in patent US10378034B2, “Use of a N-acetylneuraminate lyase derived from the bacterium Aliivibrio salmonicida in the production of neuraminic acid and derivatives thereof” (Universitetet i Tromsø-Norges Arktiske Universitet, priority 2014, dated 2019).

Tests used:
AsNAL [1] = experiment: Cleavage of Neu5Ac, Neu5Gc and KDN by AsNAL (TBA assay); type: biochemical, Aliivibrio salmonicida; settings: 5 mM substrate, 6.6 μg AsNAL, HEPES pH 8.0, 1 h room temperature
Description: The cleavage reaction of AsNAL contained 6.6 μg of AsNAL, 5 mM Neu5Gc or KDN and 124 mM HEPES buffer pH 8.0. For blank (H2O) and positive control the same components of the reactions were used, but the amount of enzyme was replaced by assay buffer. All reactions were filled up to a total volume of 50 μL with dH2O. The assay was performed in triplicate. After 1 h incubation at room temperature, the enzyme reaction was stopped by adding 2 μL concentrated H2SO4. The thiobarbituric acid (TBA) assay procedure was followed to determine the amount cleaved.

[2] = biological target: Aliivibrio salmonicida LFI1238 N-acetylneuraminate lyase (AsNAL), wild type, SEQ ID NO: 1 (Aliivibrio salmonicida, UniProt B6EI04); experiment: LDH-coupled continuous assay, enzyme kinetics for the cleavage reaction of Neu5Ac (AsNAL); type: biochemical; settings: Neu5Ac 1-90 mM, 50 mM Tris-HCl pH 8.5, 37° C.
Description: (§1) Further, the enzyme kinetics for the cleavage reactions were studied using a lactate dehydrogenase (LDH)-coupled continuous assay (Comb and Roseman, 1960; Wang and Lee, 2006). The incubation mixtures contained variable amounts (1, 5, 15, 30, 45, 60, 75 and 90 mM) of Neu5Ac, 50 mM Tris-HCl, pH 8.5, 0.15 mM NADH (Sigma), 4U LDH (Sigma) and 0.315 μg of NAL in final volumes of 200 μl. Components, except the enzyme, were mixed and incubated at 37° C. for 5 min before the reactions were started by adding the specific enzyme. The measurements were done in triplicates. The decrease in absorbance at 340 nm corresponding to the oxidation of NADH by LDH in presence of released pyruvate was measured spectrophotometrically using a Spectramax M2e Microplate reader. Initial velocities were calculated using the SoftMax Pro software (Molecular Devices) and subsequently fitted to the Michaelis-Menten equation using the program GraphPad Prism 5 (GraphPad Software Inc.). The kcat values were calculated using the formula Vmax/[Enzyme]. The relationship between absorbance and substrate concentration was calculated from a standard-curve obtained by measuring the maximum absorbance from various substrate concentrations. The relationship is given by the formula: y=0.0031x+0.0052, where x is the pyruvate concentration. By using this formula, values of Vmax were converted from mOD/min to μM/min. Enzyme concentrations were converted from mg/ml to molar using the calculated molecular mass of 32257.9 g/mol (monomeric protein).
(§2) The AsNAL Michaelis constant (KM) is somewhat higher than the KM obtained for EcNAL. However, the turnover number, kcat, is strikingly higher than for EcNAL.

[3] = biological target: T1, E. coli N-acetylneuraminate lyase (EcNAL), commercially available (Sigma) (Escherichia coli, UniProt P0A6L4); experiment: LDH-coupled continuous assay, enzyme kinetics for the cleavage reaction of Neu5Ac (EcNAL); type: biochemical; settings: Neu5Ac 1-90 mM, 50 mM Tris-HCl pH 8.5, 37° C.
T1 sequence (P0A6L4 1-297): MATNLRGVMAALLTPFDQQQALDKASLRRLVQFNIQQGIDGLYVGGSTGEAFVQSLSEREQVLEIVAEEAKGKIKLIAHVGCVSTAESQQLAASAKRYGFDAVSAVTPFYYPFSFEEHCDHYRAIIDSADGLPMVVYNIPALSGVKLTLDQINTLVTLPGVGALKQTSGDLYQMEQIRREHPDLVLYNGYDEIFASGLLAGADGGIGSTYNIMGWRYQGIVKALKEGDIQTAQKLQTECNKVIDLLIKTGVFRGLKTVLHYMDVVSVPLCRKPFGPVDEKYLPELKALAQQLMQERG
Description: as §1, with “The relationship is given by the formula: y=0.0031x+0.0052, where x is the pyruvate concentration. By using this formula, values of Vmax were converted from mOD/min to μM/min.” left out, “protein). […]” for “protein).”

AsNAL [4] = experiment: Production of Neu5,7Ac2/Neu5,8Ac2/Neu5,9Ac2 and legionaminic acid by AsNAL (DMB-HPLC-MS); type: biochemical, Aliivibrio salmonicida; settings: for 468.1613@3.56 Area (Neu5,7Ac2) / 468.1613@4.05 Area (Neu5,8Ac2) / 468.1613@4.4 Area (Neu5,9Ac2) / RT 3.29 (Area), legionaminic acid: 15 mM substrate, 15 mM pyruvate, 28 μg AsNAL, HEPES pH 8.0
Description: 15 mM of 4-O-acetyl-2-N-acetylmannosamine (4-OAc-ManNAc) or 2,4-diacetamino-2,4,6-trideoxymannose, 15 mM of pyruvate, 28 μg of enzyme (AsNAL), 124 mM HEPES buffer, pH 8.0 and dH2O were mixed in a tube to a total volume of 200 μl. Aliquots were sampled after 1.0, 1.5 and 4.0 h for production of di-acetylated Neus. For production of Legionaminic acid aliquots were sampled after 1.0 and 3.0 h. Reactions were terminated by addition of 2 μl concentrated H2SO4. Samples were passed over Amicon Ultra spin-columns with a 10000 molecular weight cut-off (Millipore) to remove high molecular weight compounds. The low molecular weight fractions were then used in DMB-HPLC coupled to mass spectrometric analyses. Derivatization of samples with DMB were performed according to protocol given by the supplier (Sialic Acid Fluorescence Labeling Kit, Takara Inc.). Reactions were carried out for 2.5 hours at 50° C. in the dark. A reference panel with a mixture of the Sias; Neu5Gc, Neu5Ac, Neu5,7Ac2, Neu5Gc9Ac, Neu5,9Ac2 and Neu5, (7/8)9Ac3 (ProZyme Inc.) were also subjected to derivatization with DMB. DMB-labeled sialic acids were separated by HPLC using Accela HPLC (Thermo Scientific) on a LTQ Orbitrap XL Fourier Transform Mass Spectrometer (FTMS) with an Electrospray ion source (Thermo Scientific) using a positive ion profile mode fullscan (+pESI). The column used was a Hypersil Gold 50×2.1 mm, 1.9 μm reversed-phase C18 column (Thermo scientific).). Elution was achieved using water with 0.1% formic acid (A) and acetonitrile with 0.1% formic acid (B) at a flow rate of 400 μl/min.
The analytical conditions were set to 300° C. for capillary temperature, 4.5 kV spray voltage, m/z 350-550 scan range and 35% collision energy. The MS/MS was targeted on the masses m/z 426.15, m/z 468.16 and m/z 451.18 using Ion trap MS (ITMS)+cESI with full MS2 in scan range m/z 125-480, corresponding to the DMB derivates DMB-Neu5Ac, DMB-di-acetylated Neu and DMB-Leg.

[5] = system: CC(=O)N[C@H]1[C@H]([C@H](O)[C@H](O)CO)OC(O)(C(=O)O)C[C@@H]1O; experiment: LDH-coupled continuous assay, enzyme kinetics for the cleavage reaction of Neu5Ac (AsNAL); type: biochemical, Aliivibrio salmonicida; settings: other: cleavage reaction, Neu5Ac 1-90 mM, 50 mM Tris-HCl pH 8.5, 37° C.
Description: as §1, §2

[6] = Integrated reaction: Neu5Ac production from GlcNAc and pyruvate at alkaline pH (TBA assay); type: biochemical
Description: For ManNAc reactions, the buffer used was HEPES, pH 8.0. […] Experiments were performed in triplicate. For ManNAc experiments, aliquots were sampled after 0.5, 1.0, 1.5, 2.5 and 4.0 h. For GlcNAc experiments, aliquots were sampled after 12, 24, 36, 48 and 72 h. Reactions were terminated by addition of 2 μl concentrated H2SO4. The time needed for N-acetylneuraminic acid (Neu5Ac) production to get started under these conditions was known to take longer time based on initial test experiments. The thiobarbituric acid (TBA) assay procedure was followed to determine the amount of Neu5Ac produced. The activity was corrected for a blank value. The blank contained all the reaction components except for enzyme.
Initially, also glycine buffer was tested at pH 10.5 and pH 11.0 for the reactions with GlcNAc. GlcNAc will chemically epimerize to ManNAc at pH values above 9.0, which the enzyme will use as substrate for the production of Neu5Ac. The epimerization is pH dependent and will increase with increasing pH. Production of Neu5Ac was higher in CAPS buffer compared to glycine buffer, so this was chosen for further experiments.

## O=C(CO)N[C@H]1[C@H]([C@H](O)[C@H](O)CO)OC(O)(C(=O)O)C[C@@H]1O (stereo partly shown) [Neu5Gc, N-glycolylneuraminic acid]
AsNAL [1]
  % cleaved: 73.9%
  Cleaved (OD): 4.018 ± 0.076
  OD sample-blank (measures uncleaved substrate): 1.422 ± 0.076

## O=C(O)C(=O)C[C@H](O)[C@@H](O)[C@@H](O)[C@H](O)[C@H](O)CO [KDN, 2-keto-3-deoxy-D-glycero-D-galacto-nononic acid]
AsNAL [1]
  % cleaved: 50.0%
  Cleaved (OD): 2.658 ± 0.130
  OD sample-blank (measures uncleaved substrate): 2.662 ± 0.130

## CC(=O)N[C@H]1[C@H]([C@H](O)[C@H](O)CO)OC(O)(C(=O)O)C[C@@H]1O (stereo partly shown) [Neu5Ac, N-acetylneuraminic acid]
[2]
  Vmax: 315.5 ± 18.5
[3]
  Vmax: 208.9 ± 16.7
AsNAL [1]
  % cleaved: 82.6%
  Cleaved (OD): 4.984 ± 0.016
  OD sample-blank (measures uncleaved substrate): 1.048 ± 0.016

## CC(=O)N[C@@H]1C(O)O[C@H](CO)[C@@H](OC(C)=O)[C@@H]1O (stereo partly shown) [4OAc-ManNAc, 4-O-acetyl-2-N-acetylmannosamine]
AsNAL [4]; 1 hour
  468.1613@3.56 Area (Neu5,7Ac2): 3258981
  468.1613@4.05 Area (Neu5,8Ac2): 4611697
  468.1613@4.4 Area (Neu5,9Ac2): 20834893
AsNAL [4]; 1.5 hours
  468.1613@3.56 Area (Neu5,7Ac2): 4048804
  468.1613@4.05 Area (Neu5,8Ac2): 5467510
  468.1613@4.4 Area (Neu5,9Ac2): 23706892
AsNAL [4]; 4 hours
  468.1613@3.56 Area (Neu5,7Ac2): 4484920
  468.1613@4.05 Area (Neu5,8Ac2): 6019425
  468.1613@4.4 Area (Neu5,9Ac2): 26500427
AsNAL [4]; same conditions, pH 8.0, asNAL
  production of Neu5,9Ac2, Neu5,7Ac2 and Neu5,8Ac2 relative to ManNAc as a substrate: 30-40%

## CC(=O)N[C@@H]([C@H](O)[C@@H](C=O)NC(C)=O)[C@@H](C)O [2,4-diacetamino-2,4,6-trideoxymannose]
AsNAL [4]; 1 h
  RT 3.29 (Area), legionaminic acid: 902252
AsNAL [4]; 3 h
  RT 3.29 (Area), legionaminic acid: 1663378

## Aliivibrio salmonicida LFI1238 N-acetylneuraminate lyase (AsNAL), wild type, SEQ ID NO: 1 (Aliivibrio salmonicida LFI1238)
[5]
  Km: 53.88 ± 6.55 mM
  kcat: 19.1 s⁻¹
  kcat/Km: 354 M⁻¹ s⁻¹

B1: EcNAL: commercially available N-acetylneuraminate lyase from E. coli (Sigma) (protein, UniProt P0A6L4 2-297, looked up)
N-acetylneuraminate lyase: ATNLRGVMAALLTPFDQQQALDKASLRRLVQFNIQQGIDGLYVGGSTGEAFVQSLSEREQVLEIVAEEAKGKIKLIAHVGCVSTAESQQLAASAKRYGFDAVSAVTPFYYPFSFEEHCDHYRAIIDSADGLPMVVYNIPALSGVKLTLDQINTLVTLPGVGALKQTSGDLYQMEQIRREHPDLVLYNGYDEIFASGLLAGADGGIGSTYNIMGWRYQGIVKALKEGDIQTAQKLQTECNKVIDLLIKTGVFRGLKTVLHYMDVVSVPLCRKPFGPVDEKYLPELKALAQQLMQERG
[6]; pyruvate and GlcNAc 4:1, CAPS pH 11.0
  production of Neu5Ac (in words): low
[6]; pyruvate and GlcNAc, CAPS pH 11.5
  production of Neu5Ac (in words): no production was observed
